Test results from patent US5700804A, “Pharmaceutical compounds” (Xenova Limited, priority 1992, dated 1997).

Biological target: PAI-1 (Homo sapiens, UniProt P05121)
Assay: PAI chromogenic substrate assay (first S2251 assay, tPA/plasminogen system)
Assay type: biochemical
Method: In this assay, a compound is incubated with PAI-1 prior to addition to the tPA assay system. Inhibition of PAI-1 results in the production of plasmin from plasminogen. In turn, plasmin cleaves the chromogenic substrate S2251 (Kabi Vitrum) producing pNA (p-nitroaniline) which is detected spectrophotometrically at 405 nm (K. Nilsson et al, Fibrinolysis (1987) 1, 163-168).
Compounds of formula (A) were tested in a PAI chromogenic substrate assay. In the first assay (K. Nilsson, Fibrinolysis (1987) 1, 163-168) each compound was incubated with PAI-1 prior to addition to the tPA assay system. […] In turn, the plasmin cleaved the chromogenic substrate S2251 (Kabi-Vitrum) producing pNA (p-nitroaniline) which was detected spectrophotometrically at 405 nm.

Sequence of PAI-1 (P05121 24-402): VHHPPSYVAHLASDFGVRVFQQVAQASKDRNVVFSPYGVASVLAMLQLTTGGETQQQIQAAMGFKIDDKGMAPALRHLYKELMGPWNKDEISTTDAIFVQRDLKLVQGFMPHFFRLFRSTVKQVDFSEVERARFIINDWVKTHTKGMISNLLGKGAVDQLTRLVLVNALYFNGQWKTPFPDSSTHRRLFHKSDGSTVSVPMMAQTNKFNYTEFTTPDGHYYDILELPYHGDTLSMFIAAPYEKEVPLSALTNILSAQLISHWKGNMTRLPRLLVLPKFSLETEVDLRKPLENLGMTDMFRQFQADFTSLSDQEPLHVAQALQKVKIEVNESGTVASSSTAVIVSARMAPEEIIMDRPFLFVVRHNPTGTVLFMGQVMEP

## CC(=O)Nc1ccc(/C=c2\[nH]c(=O)/c(=C/c3ccc(F)cc3)[nH]c2=O)cc1 [Compound 72, (3Z,6Z)-3-(4-Acetamidobenzylidene)-6-(4-fluorobenzylidene)-2,5-piperazinedione]
Concentration 3.75 μm
  Inhibition of PAI-1 in the first S2251 chromogenic substrate assay: 2%
Concentration 7.5 μm
  Inhibition of PAI-1 in the first S2251 chromogenic substrate assay: 1%
Concentration 15 μm
  Inhibition of PAI-1 in the first S2251 chromogenic substrate assay: 18%
Concentration 30 μm
  Inhibition of PAI-1 in the first S2251 chromogenic substrate assay: 75%
Concentration 60 μm
  Inhibition of PAI-1 in the first S2251 chromogenic substrate assay: 76%

## COc1ccc(/C=c2\[nH]c(=O)/c(=C/c3ccc(O)cc3)[nH]c2=O)cc1 [Compound 36, (3Z,6Z)-3-(4-Hydroxybenzylidene)-6-(4-methoxybenzylidene)-2,5-piperazinedione]
Concentration 25 μm
  Inhibition of PAI-1 in the first S2251 chromogenic substrate assay: 1%
Concentration 50 μm
  Inhibition of PAI-1 in the first S2251 chromogenic substrate assay: 6%
Concentration 100 μm
  Inhibition of PAI-1 in the first S2251 chromogenic substrate assay: 71%

## CC(=O)Oc1cccc(/C=c2\[nH]c(=O)/c(=C/c3ccccc3)[nH]c2=O)c1 [Compound 31, (3Z,6Z)-3-(3-Acetoxybenzylidene)-6-benzylidene-2,5-piperazinedione]
Concentration 6.25 μm
  Inhibition of PAI-1 in the first S2251 chromogenic substrate assay: 0%
Concentration 12.5 μm
  Inhibition of PAI-1 in the first S2251 chromogenic substrate assay: 1%
Concentration 25 μm
  Inhibition of PAI-1 in the first S2251 chromogenic substrate assay: 2%
Concentration 50 μm
  Inhibition of PAI-1 in the first S2251 chromogenic substrate assay: 12%
Concentration 100 μm
  Inhibition of PAI-1 in the first S2251 chromogenic substrate assay: 58%

## CC(=O)Nc1ccc(/C=c2\[nH]c(=O)/c(=C/c3c(Cl)cccc3Cl)[nH]c2=O)cc1 [Compound 40, (3Z,6Z)-3-(4-Acetamidobenzylidene)-6-(2,6-dichlorobenzylidene)-2,5-piperazinedione]
Concentration 6.25 μm
  Inhibition of PAI-1 in the first S2251 chromogenic substrate assay: 1%
Concentration 12.5 μm
  Inhibition of PAI-1 in the first S2251 chromogenic substrate assay: 4%
Concentration 25 μm
  Inhibition of PAI-1 in the first S2251 chromogenic substrate assay: 23%
Concentration 50 μm
  Inhibition of PAI-1 in the first S2251 chromogenic substrate assay: 61%
Concentration 100 μm
  Inhibition of PAI-1 in the first S2251 chromogenic substrate assay: 61%

## CCOc1ccc(/C=c2\[nH]c(=O)/c(=C/c3ccccc3)[nH]c2=O)cc1 [Compound 25, (3Z,6Z)-6-Benzylidene-3-(4-ethoxybenzylidene)-2,5-piperazinedione]
Concentration 6.25 μm
  Inhibition of PAI-1 in the first S2251 chromogenic substrate assay: 0%
Concentration 12.5 μm
  Inhibition of PAI-1 in the first S2251 chromogenic substrate assay: 0%
Concentration 25 μm
  Inhibition of PAI-1 in the first S2251 chromogenic substrate assay: 1%
Concentration 50 μm
  Inhibition of PAI-1 in the first S2251 chromogenic substrate assay: 25%
Concentration 100 μm
  Inhibition of PAI-1 in the first S2251 chromogenic substrate assay: 52%

## CN(C)CCCOc1ccc(/C=c2\[nH]c(=O)/c(=C/c3ccccc3)[nH]c2=O)cc1 [Compound 75, (3Z,6Z)-6-Benzylidene-3-(4-(3-N,N-dimethylaminopropoxy)benzylidene)-2,5-piperazinedione]
Concentration 6.25 μm
  Inhibition of PAI-1 in the first S2251 chromogenic substrate assay: 2%
Concentration 12.5 μm
  Inhibition of PAI-1 in the first S2251 chromogenic substrate assay: 6%
Concentration 25 μm
  Inhibition of PAI-1 in the first S2251 chromogenic substrate assay: 33%
Concentration 50 μm
  Inhibition of PAI-1 in the first S2251 chromogenic substrate assay: 52%
Concentration 100 μm
  Inhibition of PAI-1 in the first S2251 chromogenic substrate assay: 59%

## Nc1ccccc1/C=c1\[nH]c(=O)/c(=C/c2ccccc2)[nH]c1=O [Compound 39, (3Z,6Z)-3-(2-Aminobenzylidene)-6-benzylidene-2,5-piperazinedione]
Concentration 6.25 μm
  Inhibition of PAI-1 in the first S2251 chromogenic substrate assay: 0%
Concentration 12.5 μm
  Inhibition of PAI-1 in the first S2251 chromogenic substrate assay: 1%
Concentration 25 μm
  Inhibition of PAI-1 in the first S2251 chromogenic substrate assay: 1%
Concentration 50 μm
  Inhibition of PAI-1 in the first S2251 chromogenic substrate assay: 20%
Concentration 100 μm
  Inhibition of PAI-1 in the first S2251 chromogenic substrate assay: 67%

## COC(=O)COc1ccc(/C=c2\[nH]c(=O)/c(=C/c3ccccc3)[nH]c2=O)cc1 [Compound 93, 4-[(3Z,6Z)-6-Benzylidene-2,5-dioxopiperazin-3-ylidene]methylphenoxyacetic acid, methyl ester]
Concentration 6.25 μm
  Inhibition of PAI-1 in the first S2251 chromogenic substrate assay: 2%
Concentration 12.5 μm
  Inhibition of PAI-1 in the first S2251 chromogenic substrate assay: 7%
Concentration 25 μm
  Inhibition of PAI-1 in the first S2251 chromogenic substrate assay: 39%
Concentration 50 μm
  Inhibition of PAI-1 in the first S2251 chromogenic substrate assay: 68%
Concentration 100 μm
  Inhibition of PAI-1 in the first S2251 chromogenic substrate assay: 91%

## COc1ccc(/C=c2\[nH]c(=O)/c(=C/c3ccccc3)[nH]c2=O)cc1 [Compound 3, (3Z,6Z,)-6-benylidene-3-(4-methoxybenzylidene)-2,5-piperazinedione]
Concentration 6 μm
  Inhibition of PAI-1 in the first S2251 chromogenic substrate assay: 14%
Concentration 12 μm
  Inhibition of PAI-1 in the first S2251 chromogenic substrate assay: 40%
Concentration 25 μm
  Inhibition of PAI-1 in the first S2251 chromogenic substrate assay: 53%
Concentration 50 μm
  Inhibition of PAI-1 in the first S2251 chromogenic substrate assay: 74%
Concentration 100 μm
  Inhibition of PAI-1 in the first S2251 chromogenic substrate assay: 86%

## CC(=O)Nc1ccc(/C=c2\[nH]c(=O)/c(=C/c3ccccc3)[nH]c2=O)cc1 [Compound 34, (3Z,6Z)-3-(4-Acetamidobenzylidene)-6-benzylidene-2,5-piperazinedione]
Concentration 7.5 μm
  Inhibition of PAI-1 in the first S2251 chromogenic substrate assay: 24%
Concentration 15 μm
  Inhibition of PAI-1 in the first S2251 chromogenic substrate assay: 76%
Concentration 30 μm
  Inhibition of PAI-1 in the first S2251 chromogenic substrate assay: 77%
Concentration 60 μm
  Inhibition of PAI-1 in the first S2251 chromogenic substrate assay: 72%

## O=c1[nH]/c(=C\c2ccc(O)cc2Cl)c(=O)[nH]/c1=C\c1ccccc1 [Compound 85, (3Z,6Z)-6-Benzylidene-3-(2-chloro-4-hydroxybenzylidene)-2,5-piperazinedione]
Concentration 6.25 μm
  Inhibition of PAI-1 in the first S2251 chromogenic substrate assay: 13%
Concentration 12.5 μm
  Inhibition of PAI-1 in the first S2251 chromogenic substrate assay: 27%
Concentration 25 μm
  Inhibition of PAI-1 in the first S2251 chromogenic substrate assay: 43%
Concentration 50 μm
  Inhibition of PAI-1 in the first S2251 chromogenic substrate assay: 49%
Concentration 100 μm
  Inhibition of PAI-1 in the first S2251 chromogenic substrate assay: 35%

## CC(=O)Nc1ccc(/C=c2\[nH]c(=O)/c(=C/c3ccccc3Br)[nH]c2=O)cc1 [Compound 79, (3Z,6Z)-6-(4-Acetamidobenzylidene)-3-(2-bromobenzylidene)-2,5-piperazinedione]
Concentration 6.25 μm
  Inhibition of PAI-1 in the first S2251 chromogenic substrate assay: 1%
Concentration 12.5 μm
  Inhibition of PAI-1 in the first S2251 chromogenic substrate assay: 2%
Concentration 25 μm
  Inhibition of PAI-1 in the first S2251 chromogenic substrate assay: 27%
Concentration 50 μm
  Inhibition of PAI-1 in the first S2251 chromogenic substrate assay: 55%
Concentration 100 μm
  Inhibition of PAI-1 in the first S2251 chromogenic substrate assay: 42%

## COc1ccc(/C=c2\[nH]c(=O)/c(=C/c3ccccc3Br)[nH]c2=O)cc1 [Compound 53, (3Z,6Z)-3-(2-Bromobenzylidene)-6-(4-methoxybenzylidene)-2,5-piperazinedione]
Concentration 12.5 μm
  Inhibition of PAI-1 in the first S2251 chromogenic substrate assay: 2%
Concentration 25 μm
  Inhibition of PAI-1 in the first S2251 chromogenic substrate assay: 9%
Concentration 50 μm
  Inhibition of PAI-1 in the first S2251 chromogenic substrate assay: 32%
Concentration 100 μm
  Inhibition of PAI-1 in the first S2251 chromogenic substrate assay: 55%

## CC(=O)Nc1ccccc1/C=c1\[nH]c(=O)/c(=C/c2ccccc2)[nH]c1=O [Compound 38, (3Z,6Z)-3-(2-Acetamidobenzylidene)-6-benzylidene-2,5-piperazinedione]
Concentration 6.25 μm
  Inhibition of PAI-1 in the first S2251 chromogenic substrate assay: 1%
Concentration 12.5 μm
  Inhibition of PAI-1 in the first S2251 chromogenic substrate assay: 1%
Concentration 25 μm
  Inhibition of PAI-1 in the first S2251 chromogenic substrate assay: 1%
Concentration 50 μm
  Inhibition of PAI-1 in the first S2251 chromogenic substrate assay: 3%
Concentration 100 μm
  Inhibition of PAI-1 in the first S2251 chromogenic substrate assay: 64%

## CC(=O)Nc1ccc(/C=c2\[nH]c(=O)/c(=C/c3ccc(F)cc3F)[nH]c2=O)cc1 [Compound 77]
Concentration 6.25 μm
  Inhibition of PAI-1 in the first S2251 chromogenic substrate assay: 1%
Concentration 12.5 μm
  Inhibition of PAI-1 in the first S2251 chromogenic substrate assay: 61%
Concentration 25 μm
  Inhibition of PAI-1 in the first S2251 chromogenic substrate assay: 80%
Concentration 50 μm
  Inhibition of PAI-1 in the first S2251 chromogenic substrate assay: 66%
Concentration 100 μm
  Inhibition of PAI-1 in the first S2251 chromogenic substrate assay: 33%

## COC(=O)CCCC(=O)NCc1ccc(/C=c2\[nH]c(=O)/c(=C/c3ccccc3)[nH]c2=O)cc1 [Compound 94, 4-(4-[(3Z,6Z)-6-Benzylidene-2,5-dioxopiperazin-3-ylidene]methylbenzylcarbamoyl) butanoic acid, methyl ester]
Concentration 6.25 μm
  Inhibition of PAI-1 in the first S2251 chromogenic substrate assay: 43%
Concentration 12.5 μm
  Inhibition of PAI-1 in the first S2251 chromogenic substrate assay: 76%
Concentration 25 μm
  Inhibition of PAI-1 in the first S2251 chromogenic substrate assay: 83%
Concentration 50 μm
  Inhibition of PAI-1 in the first S2251 chromogenic substrate assay: 62%
Concentration 100 μm
  Inhibition of PAI-1 in the first S2251 chromogenic substrate assay: 31%

## O=C(O)CCCCOc1ccc(/C=c2\[nH]c(=O)/c(=C/c3ccccc3)[nH]c2=O)cc1 [Compound 97, 5-[4-((3Z,6Z)-6-Benzylidene-2,5-dioxopiperazin-3-ylidene)methylphenoxy]pentanoic acid]
Concentration 6.25 μm
  Inhibition of PAI-1 in the first S2251 chromogenic substrate assay: 0%
Concentration 12.5 μm
  Inhibition of PAI-1 in the first S2251 chromogenic substrate assay: 0%
Concentration 25 μm
  Inhibition of PAI-1 in the first S2251 chromogenic substrate assay: 73%
Concentration 50 μm
  Inhibition of PAI-1 in the first S2251 chromogenic substrate assay: 24%
Concentration 100 μm
  Inhibition of PAI-1 in the first S2251 chromogenic substrate assay: 0%

## COc1ccc(/C=c2\[nH]c(=O)/c(=C/c3ccc(OC(C)=O)cc3)[nH]c2=O)cc1 [Compound 37, (3Z,6Z)-3-(4-Acetoxybenzylidene)-6-(4-methoxybenzylidene)-2,5-piperazinedione]
Concentration 25 μm
  Inhibition of PAI-1 in the first S2251 chromogenic substrate assay: 2%
Concentration 50 μm
  Inhibition of PAI-1 in the first S2251 chromogenic substrate assay: 19%
Concentration 100 μm
  Inhibition of PAI-1 in the first S2251 chromogenic substrate assay: 69%

## CCCCOc1ccc(/C=c2\[nH]c(=O)/c(=C/c3ccccc3)[nH]c2=O)cc1 [Compound 48, (3Z,6Z)-6-Benzylidene-3-(4-butoxybenzylidene)-2,5-piperazinedione]
Concentration 12.5 μm
  Inhibition of PAI-1 in the first S2251 chromogenic substrate assay: 3%
Concentration 25 μm
  Inhibition of PAI-1 in the first S2251 chromogenic substrate assay: 26%
Concentration 50 μm
  Inhibition of PAI-1 in the first S2251 chromogenic substrate assay: 57%
Concentration 100 μm
  Inhibition of PAI-1 in the first S2251 chromogenic substrate assay: 73%

## COc1ccc(/C=c2\[nH]c(=O)/c(=C/c3ccc(NC(C)=O)cc3)[nH]c2=O)cc1 [Compound 26, (3Z,6Z)-3-(4-Acetamidobenzylidene)-6-(4-methoxybenzylidene)-2,5-piperazinedione]
Concentration 7.5 μm
  Inhibition of PAI-1 in the first S2251 chromogenic substrate assay: 42%
Concentration 15 μm
  Inhibition of PAI-1 in the first S2251 chromogenic substrate assay: 73%
Concentration 30 μm
  Inhibition of PAI-1 in the first S2251 chromogenic substrate assay: 71%
Concentration 60 μm
  Inhibition of PAI-1 in the first S2251 chromogenic substrate assay: 57%

## COc1ccc(/C=c2\[nH]c(=O)/c(=C/c3ccc(CNC(=O)OC(C)(C)C)cc3)[nH]c2=O)cc1 [Compound 56, (3Z,6Z)-(4-Methoxybenzylidene)-6-(4-tert-butoxycarbonylaminomethylbenzylidene)-2,5-piperazinedione]
Concentration 12.5 μm
  Inhibition of PAI-1 in the first S2251 chromogenic substrate assay: 2%
Concentration 25 μm
  Inhibition of PAI-1 in the first S2251 chromogenic substrate assay: 15%
Concentration 50 μm
  Inhibition of PAI-1 in the first S2251 chromogenic substrate assay: 60%
Concentration 100 μm
  Inhibition of PAI-1 in the first S2251 chromogenic substrate assay: 82%
